Laboratory results as given in US7129234B2, “Phenyl heterocyclyl ethers” (Pfizer Inc., priority 2001, dated 2006).
Structures can show the parent of a compound that is named as a salt.

Row | SMILES | melting point
1 | CNCc1cnccc1Oc1ccc(Cl)c(Cl)c1 (as salt: hydrochloride) [Example 103, [4-(3,4-Dichlorophenoxy)-3-pyridinyl]-N-methylmethanamine hydrochloride] | 198 to 203 °C
2 | CNCc1cc2ccccc2nc1Oc1ccc(Cl)c(Cl)c1 (as salt: HCl) [Example 104, [2-(3,4-Dichlorophenoxy)-3-quinolinyl]-N-methylmethanamine] | 224 to 226 °C
3 | CN(C)Cc1cccnc1Oc1ccc(Cl)cc1 (as salt: hydrochloride) [Example 106, [2-(4-Chlorophenoxy)-3-pyridinyl]-N,N-dimethylmethanamine hydrochloride] | 195 to 197 °C
4 | CNCc1cccnc1Oc1ccc(Cl)c(Cl)c1 (as salt: HCl) [Example 105, [2-(3,4-Dichlorophenoxy)-3-pyridinyl]-N-methylmethanamine] | 198 to 203 °C
